16 compounds from patent US8809384B2, “Azaspirodecanone compounds” (Hoffmann-La Roche Inc., priority 2011, dated 2014) can be followed below.

The target of this assay is T1, human HSL (Homo sapiens, UniProt Q05469).
T1 construct: generate a full length human HSL ORF with a 3′-His6 tag; made in house; host or cells: High 5 insect cells (baculovirus, pFast-BAC)
T1 sequence (Q05469 1-1076): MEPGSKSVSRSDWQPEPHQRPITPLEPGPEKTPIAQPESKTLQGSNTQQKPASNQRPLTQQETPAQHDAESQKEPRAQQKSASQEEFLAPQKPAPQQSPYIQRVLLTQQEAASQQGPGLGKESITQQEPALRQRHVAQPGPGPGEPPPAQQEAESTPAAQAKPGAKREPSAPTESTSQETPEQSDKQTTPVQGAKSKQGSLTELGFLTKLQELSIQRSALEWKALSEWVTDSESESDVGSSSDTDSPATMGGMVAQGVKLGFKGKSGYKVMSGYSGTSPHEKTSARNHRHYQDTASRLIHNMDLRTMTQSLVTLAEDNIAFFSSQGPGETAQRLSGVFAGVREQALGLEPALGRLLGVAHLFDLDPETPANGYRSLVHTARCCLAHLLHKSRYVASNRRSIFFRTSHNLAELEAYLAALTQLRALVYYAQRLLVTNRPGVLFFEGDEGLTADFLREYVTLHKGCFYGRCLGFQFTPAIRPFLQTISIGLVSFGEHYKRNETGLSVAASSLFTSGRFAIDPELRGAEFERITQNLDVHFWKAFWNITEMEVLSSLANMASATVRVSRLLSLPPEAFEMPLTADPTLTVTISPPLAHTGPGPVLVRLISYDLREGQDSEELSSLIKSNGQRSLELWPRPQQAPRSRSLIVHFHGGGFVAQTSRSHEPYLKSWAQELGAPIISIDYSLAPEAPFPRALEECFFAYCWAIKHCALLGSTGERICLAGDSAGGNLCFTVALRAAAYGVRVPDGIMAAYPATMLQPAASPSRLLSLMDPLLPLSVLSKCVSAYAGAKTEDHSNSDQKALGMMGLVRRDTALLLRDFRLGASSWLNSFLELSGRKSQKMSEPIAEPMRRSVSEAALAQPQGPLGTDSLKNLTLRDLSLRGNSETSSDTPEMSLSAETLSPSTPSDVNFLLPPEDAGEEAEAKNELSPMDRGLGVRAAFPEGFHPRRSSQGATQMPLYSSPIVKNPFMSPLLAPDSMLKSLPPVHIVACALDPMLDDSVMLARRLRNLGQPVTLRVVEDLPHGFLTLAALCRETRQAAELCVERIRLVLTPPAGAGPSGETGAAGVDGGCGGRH
Put plainly: Human Hormone-Sensitive Lipase (HSL) enzyme inhibition assay (colorimetric, DMPT substrate). The format is biochemical. The following applies: human full length HSL-His6, 2,3-dimercapto-1-propanol tributyrate substrate, 37° C., 20 minutes; read-out: HSL hum IC50. The method, then: Production of Human full length Hormone Sensitive Lipase-His^6: • 1) Cloning: cDNA was prepared from commercial human brain polyA+ RNA and used as a template in overlapping PCR to generate a full length human HSL ORF with a 3′-His6 tag. This full length insert was cloned into the pFast-BAC vector and the DNA-sequence of several single clones was verified. DNA from a correct full length clone with the 3′His6 tag was used to transform the E. coli strain DH10BAC. Resulting bacmid DNA was used to generate a titered baculovirus stock for protein generation. The sequence of the encoded HSL conforms to Swissprot entry Q05469, with the additional C-terminal His6-tag. • 2) Protein purification: Culture: 5.5 L, High 5 cells expressing human full length HSL-His^6, 48 hr., containing 25 μM E-64. Cell count: […], 90% viable. Cells were thawed. On ice, cells were suspended in Base Buffer containing 10% glycerol, 25 mM Tris-Cl, 300 mM NaCl, 10 mM imidazole, 10 mM 2-mercaptoethanol, 2 μg pepstatin/ml, 2 μg leupeptin/ml, 2 μg antipain/ml, pH 8.0 at 4° C. in a final volume of 475 ml with 3.75×10^7 cells/ml. […] was done at 3×30 sec., Lubrol PX was added to 0.2% final concentration followed by stirring for 15 min at 4° C. and centrifugation at 25 k×g, 60 min, 4° C. Soluble proteins were mixed with 60 ml of pre-washed and equilibrated Ni-NTA Agarose (Qiagen 30210) followed by tumbling end-over-end, 45 min., 4° C., centrifugation 1000 rpm 5 min and letting resin settle […]. Supernatant was removed, the resin washed in the centrifuge vessel using 5 volumes of Base Buffer containing 0.2% Lubrol PX. Centrifugation was done again, then the supernatant discarded. The resin was poured onto a 0.8 μm membrane in a disposable filter unit (Nalge 450-0080), and washed with 5 volumes of Base Buffer containing 0.2% Lubrol PX. It was then washed with 30 volumes of Base Buffer containing 60 mM imidazole pH 7.5 at 4° C. The protein was eluated with 5 volumes of 25 mM Tris-Cl, 300 mM NaCl, 200 mM imidazole, 10 mM 2-mercaptoethanol, pH 7.5 at 4° C. by tumbling resin with buffer end-over-end, 30 min., 4° C. The resin was captured on a 0.2 μm membrane disposable filter unit (Millipore SCGP U02 RE) and the eluate collected in the reservoir. The eluate was concentrated using a 30 k MWCO centrifugal filter device (Sartorius Vivascience Vivacell 100, VC1022), to 20 ml. It was then dialyzed overnight at 4° C., two times against 2 L of 10% glycerol, 25 mM Tris-Cl, 300 mM NaCl, 0.2 mM EDTA, 0.2 mM DTT, pH 7.5 at 4° C. The protein was filtered using a 0.22 μm disposable filter unit (Millipore SCGP00525). The protein concentration was calculated from absorbance at 280 nm, using 280=0.67 cm^−1 mg-1. Yield was 235 mg, total. The protein was stored at −80° C.
Human Hormone-Sensitive Lipase (HSL) Enzyme Inhibition Assay: • HSL enzyme activity was measured by a colorimetric assay using 2,3-dimercapto-1-propanol tributyrate (Aldrich, St. Louis, Mo.) as a substrate. Typically, 1.5 mM 2,3-dimercapto-1-propanol tributyrate (DMPT) in 100 mM MOPS, pH 7.2, 0.2 mg/ml fatty acid-free BSA was prepared by sonication at 4° C. to homogenous suspension. Test compounds (2 mM stock in DMSO) were diluted 3 fold in series in DMSO. Compound solutions were diluted 24 fold in 1.5 mM DMPT containing solution and 18 μl per well was added to 384-well microplates (Corning Costar). Twelve microliters per well of human HSL (15 μg/ml) was added and the reaction mixture was incubated at 37° C. for 20 minutes. Six microliters of 12 mM dithio-bis-(2-nitrobenzoic acid) (DTNB) in DMSO plus 1.2% SDS and 0.6% Triton X-100 were added and the mixture was incubated at room temperature for 15 minutes. Product production was monitored by reading absorbance at 405 nm on an Envision Reader (PerkinElmer Life and Analytical Sciences, Shelton, Conn.).

pIC50: −log10 of the molar value.

What is called pIC50 is −log10 of the IC50, conventionally taken in molar units. For the compound `CC1(C)CCC(=O)N1C[C@]1(O)CC[C@]2(CCN(c3ccc(C(F)(F)F)cc3)C2=O)CC1` [Example 1, (5α,8α)-8-((2,2-dimethyl-5-oxopyrrolidin-1-yl)methyl)-8-hydroxy-2-(4-(trifluoromethyl)phenyl)-2-azaspiro[4.5]decan-1-one], the pIC50 was 7.83.
In the case of `CC(C)Oc1ccc(N2CC[C@]3(CC[C@@](O)(CN4C(=O)CCC4(C)C)CC3)C2=O)cc1` [Example 2, (5α,8α)-8-((2,2-dimethyl-5-oxopyrrolidin-1-yl)methyl)-8-hydroxy-2-(4-isopropoxyphenyl)-2-azaspiro[4.5]decan-1-one], the pIC50 was 7.90.
Turning to `CC(C)Oc1ccc(N2CC[C@]3(CC[C@@](O)(CN4CCN(C)C4=O)CC3)C2=O)cc1` [Example 3, (5α,8α)-8-hydroxy-2-(4-isopropoxyphenyl)-8-((3-methyl-2-oxoimidazolidin-1-yl)methyl)-2-azaspiro[4.5]decan-1-one], the pIC50 was 7.62.
As for `CC(C)Oc1ccc(N2CC[C@]3(CC[C@@](O)(CN4C(=O)CCC45CC5)CC3)C2=O)cc1` [Example 4, (5α,8α)-8-Hydroxy-2-(4-isopropoxy-phenyl)-8-(5-oxo-4-aza-spiro[2.4]hept-4-ylmethyl)-2-aza-spiro[4.5]decan-1-one], the figure is 7.94; as for `CC(C)Oc1ccc(N2CC[C@]3(CC[C@@](O)(CN4CCOC4=O)CC3)C2=O)cc1` [Example 5, 3-(((5α,8α)-8-Hydroxy-2-(4-isopropoxyphenyl)-1-oxo-2-azaspiro[4.5]decan-8-yl)methyl)oxazolidin-2-one], 8.23; as for `CC(C)Oc1ccc(N2CC[C@]3(CC[C@@](O)(CN4CC[C@@H](O)C4=O)CC3)C2=O)cc1` [Example 6, (5α,8α)-8-Hydroxy-8-(((R)-3-hydroxy-2-oxopyrrolidin-1-yl)methyl)-2-(4-isopropoxyphenyl)-2-azaspiro[4.5]decan-1-one], 7.22.
`CC(C)Oc1ccc(N2CC[C@]3(CC[C@@](O)(CN4CCN(C)C4=O)CC3)C2=O)cn1` [Example 7, (5α,8α)-8-Hydroxy-2-(6-isopropoxy-pyridin-3-yl)-8-(3-methyl-2-oxo-imidazolidin-1-ylmethyl)-2-aza-spiro[4.5]decan-1-one]: the negative logarithm of the IC50 (pIC50) is 6.86.
Consider `CC(C)Oc1ccc(N2CC[C@]3(CC[C@@](O)(CN4CCNC4=O)CC3)C2=O)cn1` [Example 8, (5α,8α)-8-hydroxy-2-(6-isopropoxypyridin-3-yl)-8-((2-oxoimidazolidin-1-yl)methyl)-2-azaspiro[4.5]decan-1-one], for which the negative-log IC50 (pIC50) was 6.52.
Under `CC1(C)CCC(=O)N1C[C@]1(O)CC[C@]2(CCN(c3ccc([C@@H](O)C(F)(F)F)cc3)C2=O)CC1` [Example 9, (5α,8α)-8-(2,2-Dimethyl-5-oxo-pyrrolidin-1-ylmethyl)-8-hydroxy-2-[4-((R)-2,2,2-trifluoro-1-hydroxy-ethyl)-phenyl]-2-aza-spiro[4.5]decan-1-one] stands 7.84; under `CN1CCN(C[C@]2(O)CC[C@]3(CCN(c4ccc([C@@H](O)C(F)(F)F)cc4)C3=O)CC2)C1=O` [Example 10, (5α,8α)-8-Hydroxy-8-(3-methyl-2-oxo-imidazolidin-1-ylmethyl)-2-[4-((R)-2,2,2-trifluoro-1-hydroxy-ethyl)-phenyl]-2-aza-spiro[4.5]decan-1-one], 6.87.
As to `C[C@@H](Oc1ccc(N2CC[C@]3(CC[C@@](O)(CN4C(=O)CCC45CC5)CC3)C2=O)cc1)C(F)(F)F` [Example 11, (5α,8α)-8-hydroxy-8-((5-oxo-4-azaspiro[2.4]heptan-4-yl)methyl)-2-(4-((R)-1,1,1-trifluoropropan-2-yloxy)phenyl)-2-azaspiro[4.5]decan-1-one], the pIC50 is 8.15.
As for `C[C@H](Oc1ccc(N2CC[C@]3(CC[C@@](O)(CN4C(=O)CCC45CC5)CC3)C2=O)cn1)C(F)(F)F` [Example 12, (5α,8α)-8-hydroxy-8-((5-oxo-4-azaspiro[2.4]heptan-4-yl)methyl)-2-(6-((S)-1,1,1-trifluoropropan-2-yloxy)pyridin-3-yl)-2-azaspiro[4.5]decan-1-one], the figure is 8.01; as for `O=C1CCC2(CC2)N1C[C@]1(O)CC[C@]2(CCN(c3ccc(OCC(F)(F)F)cc3)C2=O)CC1` [Example 13, (5α,8α)-8-Hydroxy-8-(5-oxo-4-aza-spiro[2.4]hept-4-ylmethyl)-2-[4-(2,2,2-trifluoro-ethoxy)-phenyl]-2-aza-spiro[4.5]decan-1-one], 8.12; as for `O=C1OCC2(CC2)N1C[C@]1(O)CC[C@]2(CCN(c3ccc(OCC(F)(F)F)cc3)C2=O)CC1` [Example 15, (5α,8α)-8-Hydroxy-8-(5-oxo-6-oxa-4-aza-spiro[2.4]hept-4-ylmethyl)-2-[4-(2,2,2-trifluoro-ethoxy)-phenyl]-2-aza-spiro[4.5]decan-1-one], 6.00.
With `O=C1OCCN1C[C@]1(O)CC[C@]2(CCN(c3ccc(OCC(F)(F)F)cc3)C2=O)CC1` [Example 16, (5α,8α)-8-Hydroxy-8-(2-oxo-oxazolidin-3-ylmethyl)-2-[4-(2,2,2-trifluoro-ethoxy)-phenyl]-2-aza-spiro[4.5]decan-1-one], the pIC50 was 6.82.
Under `O=C1CCC2(CC2)N1C[C@]1(O)CC[C@]2(CCN(c3ccc([C@@H](O)C(F)(F)F)cc3)C2=O)CC1` [Example 17, (5α,8α)-8-Hydroxy-8-(5-oxo-4-aza-spiro[2.4]hept-4-ylmethyl)-2-[4-((R)-2,2,2-trifluoro-1-hydroxy-ethyl)-phenyl]-2-aza-spiro[4.5]decan-1-one] stands 7.40.
